Article PMC9950205, “Efficacy, safety, and pharmacokinetics of teduglutide in adult Japanese patients with short bowel syndrome and intestinal failure: two phase III studies with an extension” (Surgery Today, 2022)
Read-outs that look alike come from different tables or passages of the source.

Assay: Plasma pharmacokinetics of teduglutide, non-compartmental analysis
Type: in vivo, human
Conditions: for half-life / AUC(0-inf) / AUC(0-t) / Cmax / Tmax: human, plasma, 0.05 mg/kg; for half-life: read-out: t½ (converted)
Method: In TED-C14-004 and SHP633-306, blood samples for PK evaluations were taken pre-dose and at 0.25, 0.5, 1, 2, 3, 4, 6, 8, 10, and 12 h post-dose during the first 12 weeks of treatment with teduglutide. In SHP633-307, patients continuing from study TED-C14-004 had blood samples for PK evaluations taken pre-dose and at […], and 1, 2, 3, 4, 6, 8, 10, and 12 h post-dose at the first extension study visit. Patients continuing from SHP633-306 had blood samples taken pre-dose and 1 and 2 h post-dose at the first extension study visit. Blood samples to test for the presence of antibodies to teduglutide were taken at baseline and weeks 12 and 24 in SHP633-306; ≥ 14 h after dosing at baseline and weeks 12 and 24, and then every 6 months thereafter in TED-C14-004; and every 3 months in SHP633-307.
Single-dose PK parameters were estimated using a non-compartmental analysis and included the maximum plasma concentration of teduglutide (Cmax), time to Cmax (tmax), terminal half-life elimination (t½), area under the plasma concentration–time curve (AUC) from time 0 to infinity (AUC0-inf), and AUC from time 0 to the last measurable concentration (AUC0-t).

[1] = sc, SHP633-306, plasma, 0.05 mg/kg SC once daily, n = 7, mean ± SD
[2] = sc, TED-C14-004, plasma, 0.05 mg/kg SC once daily, n = 8, mean ± SD
[3] = subcutaneous, SHP633-307, patients from TED-C14-004, first extension study visit, mean ± SD

Q: For `CC[C@H](C)[C@H](NC(=O)[C@H](Cc1ccccc1)NC(=O)[C@H](CC(=O)O)NC(=O)[C@H](CCCNC(=N)N)NC(=O)[C@H](C)NC(=O)[C@H](C)NC(=O)[C@H](CC(C)C)NC(=O)[C@H](CC(N)=O)NC(=O)[C@H](CC(=O)O)NC(=O)[C@H](CC(C)C)NC(=O)[C@@H](NC(=O)[C@@H](NC(=O)[C@H](CC(N)=O)NC(=O)[C@H](CCSC)NC(=O)[C@H](CCC(=O)O)NC(=O)[C@H](CC(=O)O)NC(=O)[C@H](CO)NC(=O)[C@H](Cc1ccccc1)NC(=O)[C@H](CO)NC(=O)CNC(=O)[C@H](CC(=O)O)NC(=O)CNC(=O)[C@@H](N)Cc1c[nH]cn1)[C@@H](C)O)[C@@H](C)CC)C(=O)N[C@@H](CC(N)=O)C(=O)N[C@@H](Cc1c[nH]c2ccccc12)C(=O)N[C@@H](CC(C)C)C(=O)N[C@H](C(=O)N[C@@H](CCC(N)=O)C(=O)N[C@H](C(=O)N[C@@H](CCCCN)C(=O)N[C@H](C(=O)N[C@H](C(=O)N[C@@H](CC(=O)O)C(=O)O)[C@@H](C)O)[C@@H](C)CC)[C@@H](C)O)[C@@H](C)CC` [teduglutide], which “Pre-dose concentrations after multiple dosing” value (SHP633-307, patients from SHP633-306, sparse PK sampling, suggests no accumulation) is on record?
A: The value was “below the lower limit quantification”.

Q: What about the half-life (sc, SHP633-306, plasma, 0.05 mg/kg SC once daily, n = 6, mean ± SD) of the same compound?
A: The half-life was 1.1 ± 0.2 h.

Q: And the AUC(0-inf) [1]?
A: Its AUC(0-inf) is 252 ± 85.4 ng·h/mL.

Q: What about the AUC(0-t) [1] of the same compound?
A: The AUC(0-t) was 240 ± 80.7 ng·h/mL.

Q: And the Cmax [1]?
A: The Cmax was 49.5 ± 16.4 ng/mL.

Q: What about the Tmax [1] of the same compound?
A: The Tmax was 3.6 ± 1.6 h.

Q: And the AUC(0-inf) [2]?
A: The AUC(0-inf) was 204 ± 51.1 ng·h/mL.

Q: What about the AUC(0-t) [2] of the same compound?
A: The AUC(0-t) was 201 ± 51.6 ng·h/mL.

Q: And the Cmax [2]?
A: Its Cmax is 49.7 ± 19.7 ng/mL.

Q: And the Tmax [2]?
A: The Tmax was 2.6 ± 1 h.

Q: What about the half-life [2] of the same compound?
A: The half-life was 1.2 ± 0.7 h.

Q: What about the AUC(0-inf) [3] of the same compound?
A: Its AUC(0-inf) is 209 ± 72.7 ng·h/mL.

Q: And the AUC(0-t) [3]?
A: The AUC(0-t) was 200 ± 71.6 ng·h/mL.

Q: And the Cmax [3]?
A: Its Cmax is 54.1 ± 18.7 ng/mL.

Q: And the Tmax [3]?
A: The Tmax was 2.1 ± 0.4 h.
